{
  "source": "patent US20260191768A1",
  "about": "“PHARMACEUTICAL COMPOSITION CONTAINING HIGH CONCENTRATION OF OPIRANSERIN” (VIVOZON, INC., priority 2022, published 2026)",
  "type_in_all_cases": "physicochemical",
  "key": {"[1]": {"experiment": "Solubility of opiranserin hydrochloride as stated in the description", "details": "solvent not stated; regarded as \"sparingly soluble\""}, "[2]": {"experiment": "Room temperature stability of dissolved opiranserin hydrochloride", "details": "for Opiranserin hydrochloride concentration, Initial: prepared at 40° C. for 3 hours", "procedure": "Among solvents showing high solubility in Experimental Example 1, the solvents that have no irritation or can minimize irritation when preparing medicines were selected as shown in Table 2. Then, the solubility and short-term room temperature stability of opiranserin hydrochloride according to the concentration content were estimated. Each preparation was prepared by adjusting the solvent according to the concentration, adding an excess amount of opiranserin hydrochloride, and stirring at 40° C. for 3 hours. The preparation was centrifuged, the supernatant was transferred to a glass vial, and stored at room temperature to observe properties and analyze content. Liquid chromatography (HPLC) was used to analyze the content of opiranserin hydrochloride, and sampling was carried out upon completion of preparation and after storage at room temperature for 65 hours."}, "[3]": {"experiment": "Solubility measurement of opiranserin hydrochloride according to solvents (HPLC)", "details": "for solubility at 7 days / solubility at 3 h: thermodynamic from solid; for solubility at 7 days: 25° C./7 days", "procedure": "An excess amount of opiranserin hydrochloride was added to the solvents shown in Table 1, stirred under the following conditions, centrifuged and filtered, and the filtrate was diluted. The solubility of the drug was measured using high-performance liquid chromatography (HPLC)."}, "[4]": {"experiment": "Screening of hydrotropes for improving solubility of opiranserin hydrochloride", "procedure": "After adding 50 mL of water for injection into a 200 mL beaker, a weight of hydrotrope corresponding to the target content was added thereto and stirred at room temperature to completely dissolve it. Then, a weight of opiranserin hydrochloride corresponding to the target concentration was added and stirred at room temperature to completely dissolve it. If it was not completely dissolved in some solvents, the temperature was raised to 40° C. and additional stirring was carried out. When the added materials were completely dissolved, water for injection was added to the beaker to reach the 100 mL mark and further stirred to ensure that the composition was completely mixed. The prepared compositions were filtered using a 0.2 μm syringe filter and then dispensed into vials for injection."}, "[5]": {"details": "Solvent 27: 1 w/v % Poloxamer 124"}, "[6]": {"details": "Solvent 28: 5 w/v % Poloxamer 124"}, "[7]": {"details": "Solvent 29: 1 w/v % Propylene glycol"}, "[8]": {"details": "Solvent 30: 5 w/v % Propylene glycol"}},
  "note": "Counter-ions that a name gives are not always drawn.",
  "data": [
    {"smiles": "CCCCOc1c(OC)cc(C(=O)NCC2(N(C)C)CCOCC2)cc1OC", "note": "[Opiranserin hydrochloride, 4-butoxy-N-((4-(dimethylamino)tetrahydro-2H-pyran-4-yl)methyl)-3,5-dimethoxy benzamide]", "values": [
      {"measurement": "solubility", "setting": "[1]", "value": 25, "unit": "mg/mL"},
      {"measurement": "Change in properties after storage at room temperature for 65 hours", "setting": "[2]; Solvent 25: 1 w/v % Triacetin", "value": "Recrystallization generation"},
      {"measurement": "Opiranserin hydrochloride concentration, After storage at room temperature for 65 hours", "setting": "[2]; Solvent 25: 1 w/v % Triacetin", "value": 44.33, "unit": "mg/mL"},
      {"measurement": "Opiranserin hydrochloride concentration, Initial", "setting": "[2]; Solvent 25: 1 w/v % Triacetin", "value": 78.6, "unit": "mg/mL"},
      {"measurement": "Change in properties after storage at room temperature for 65 hours", "setting": "[2]; Solvent 26: 6 w/v % Triacetin", "value": "Recrystallization generation"},
      {"measurement": "Opiranserin hydrochloride concentration, After storage at room temperature for 65 hours", "setting": "[2]; Solvent 26: 6 w/v % Triacetin", "value": 38.1, "unit": "mg/mL"},
      {"measurement": "Change in properties after storage at room temperature for 65 hours", "setting": "[2]; Solvent 26: 6 w/v % Triacetin, listed as opiranserin hydrochloride", "value": "recrystallization of needle-shaped structure was generated"},
      {"measurement": "Opiranserin hydrochloride concentration, Initial", "setting": "[2]; Solvent 26: 6 w/v % Triacetin", "value": 86.1, "unit": "mg/mL"},
      {"measurement": "Change in properties after storage at room temperature for 65 hours", "setting": "[2]; [5]", "value": "Recrystallization generation"},
      {"measurement": "Opiranserin hydrochloride concentration, After storage at room temperature for 65 hours", "setting": "[2]; [5]", "value": 41.1, "unit": "mg/mL"},
      {"measurement": "Opiranserin hydrochloride concentration, Initial", "setting": "[2]; [5]", "value": 72.1, "unit": "mg/mL"},
      {"measurement": "Change in properties after storage at room temperature for 65 hours", "setting": "[2]; [6]", "value": "Recrystallization generation"},
      {"measurement": "Opiranserin hydrochloride concentration, After storage at room temperature for 65 hours", "setting": "[2]; [6]", "value": 42.5, "unit": "mg/mL"},
      {"measurement": "Opiranserin hydrochloride concentration, Initial", "setting": "[2]; [6]", "value": 83.8, "unit": "mg/mL"},
      {"measurement": "Change in properties after storage at room temperature for 65 hours", "setting": "[2]; [7]", "value": "Recrystallization generation"},
      {"measurement": "Opiranserin hydrochloride concentration, After storage at room temperature for 65 hours", "setting": "[2]; [7]", "value": 34.8, "unit": "mg/mL"},
      {"measurement": "Opiranserin hydrochloride concentration, Initial", "setting": "[2]; [7]", "value": 61.8, "unit": "mg/mL"},
      {"measurement": "Change in properties after storage at room temperature for 65 hours", "setting": "[2]; [8]", "value": "Recrystallization generation"},
      {"measurement": "Opiranserin hydrochloride concentration, After storage at room temperature for 65 hours", "setting": "[2]; [8]", "value": 34.8, "unit": "mg/mL"},
      {"measurement": "Opiranserin hydrochloride concentration, Initial", "setting": "[2]; [8]", "value": 74.0, "unit": "mg/mL"},
      {"measurement": "solubility at 7 days", "setting": "[3]; 1 w/v % Caprylocaproyl polyoxyl 8 glyceride, 25 °C, aqueous with cosolvent or surfactant or cyclodextrin, Solvent 7: 1 w/v % Caprylocaproyl polyoxyl 8 glyceride", "value": 46.2, "unit": "mg/mL"},
      {"measurement": "solubility at 7 days", "setting": "[3]; 1 w/v % Hydroxpropyl-beta-cyclodextrin, 25 °C, aqueous with cosolvent or surfactant or cyclodextrin, Solvent 10: 1 w/v % Hydroxpropyl-beta-cyclodextrin", "value": 49.2, "unit": "mg/mL"},
      {"measurement": "solubility at 7 days", "setting": "[3]; 1 w/v % Macrogol 15 hydroxystearate, 25 °C, aqueous with cosolvent or surfactant or cyclodextrin, Solvent 8: 1 w/v % Macrogol 15 hydroxystearate", "value": 44, "unit": "mg/mL"},
      {"measurement": "solubility at 7 days", "setting": "[3]; 1 w/v % PEG-6 caprylic/capric glyceride, 25 °C, aqueous with cosolvent or surfactant or cyclodextrin, Solvent 16: 1 w/v % PEG-6 caprylic/capric glyceride", "value": 49, "unit": "mg/mL"},
      {"measurement": "solubility at 3 h", "setting": "[3]; 1 w/v % Poloxamer 124, 40 °C, aqueous with cosolvent or surfactant or cyclodextrin, Solvent 21: 1 w/v % Poloxamer 124, 40° C./3 hours", "value": 72.1, "unit": "mg/mL"},
      {"measurement": "solubility at 7 days", "setting": "[3]; 1 w/v % Polyoxyl 35 castor oil, 25 °C, aqueous with cosolvent or surfactant or cyclodextrin, Solvent 6: 1 w/v % Polyoxyl 35 castor oil", "value": 42.1, "unit": "mg/mL"},
      {"measurement": "solubility at 7 days", "setting": "[3]; 1 w/v % Polysorbate 80, 25 °C, aqueous with cosolvent or surfactant or cyclodextrin, Solvent 9: 1 w/v % Polysorbate 80", "value": 44.7, "unit": "mg/mL"},
      {"measurement": "solubility at 3 h", "setting": "[3]; 1 w/v % Propylene glycol, 40 °C, water, Solvent 23: 1 w/v % Propylene glycol, 40° C./3 hours", "value": 61.8, "unit": "mg/mL"},
      {"measurement": "solubility at 7 days", "setting": "[3]; 1 w/v % Triacetin, 25 °C, water, Solvent 13: 1 w/v % Triacetin", "value": 49.7, "unit": "mg/mL"},
      {"measurement": "solubility at 3 h", "setting": "[3]; 1 w/v % Triacetin, 40 °C, water, Solvent 19: 1 w/v % Triacetin, 40° C./3 hours", "value": 78.6, "unit": "mg/mL"},
      {"measurement": "solubility at 7 days", "setting": "[3]; 3 w/v % Hydroxpropyl-beta-cyclodextrin, 25 °C, aqueous with cosolvent or surfactant or cyclodextrin, Solvent 11: 3 w/v % Hydroxpropyl-beta-cyclodextrin", "value": 55.6, "unit": "mg/mL"},
      {"measurement": "solubility at 7 days", "setting": "[3]; 3 w/v % PEG-6 caprylic/capric glyceride, 25 °C, aqueous with cosolvent or surfactant or cyclodextrin, Solvent 17: 3 w/v % PEG-6 caprylic/capric glyceride", "value": 57, "unit": "mg/mL"},
      {"measurement": "solubility at 7 days", "setting": "[3]; 3 w/v % Triacetin, 25 °C, water, Solvent 14: 3 w/v % Triacetin", "value": 57.1, "unit": "mg/mL"},
      {"measurement": "solubility at 3 h", "setting": "[3]; 5 w/v % Poloxamer 124, 40 °C, aqueous with cosolvent or surfactant or cyclodextrin, Solvent 22: 5 w/v % Poloxamer 124, 40° C./3 hours", "value": 83.8, "unit": "mg/mL"},
      {"measurement": "solubility at 3 h", "setting": "[3]; 5 w/v % Propylene glycol, 40 °C, aqueous with cosolvent or surfactant or cyclodextrin, Solvent 24: 5 w/v % Propylene glycol, 40° C./3 hours", "value": 74, "unit": "mg/mL"},
      {"measurement": "solubility at 7 days", "setting": "[3]; 6 w/v % Hydroxpropyl-beta-cyclodextrin, 25 °C, aqueous with cosolvent or surfactant or cyclodextrin, Solvent 12: 6 w/v % Hydroxpropyl-beta-cyclodextrin", "value": 63.3, "unit": "mg/mL"},
      {"measurement": "solubility at 7 days", "setting": "[3]; 6 w/v % PEG-6 caprylic/capric glyceride, 25 °C, aqueous with cosolvent or surfactant or cyclodextrin, Solvent 18: 6 w/v % PEG-6 caprylic/capric glyceride", "value": 67.6, "unit": "mg/mL"},
      {"measurement": "solubility at 7 days", "setting": "[3]; 6 w/v % Triacetin, 25 °C, aqueous with cosolvent or surfactant or cyclodextrin, Solvent 15: 6 w/v % Triacetin", "value": 72.7, "unit": "mg/mL"},
      {"measurement": "solubility at 3 h", "setting": "[3]; 6 w/v % Triacetin, 40 °C, aqueous with cosolvent or surfactant or cyclodextrin, Solvent 20: 6 w/v % Triacetin, 40° C./3 hours", "value": "~86", "unit": "mg/mL"},
      {"measurement": "solubility at 7 days", "setting": "[3]; 100% Ethanol, 25 °C, organic solvent or mixture, Solvent 2: 100% Ethanol", "value": 25.1, "unit": "mg/mL"},
      {"measurement": "solubility at 7 days", "setting": "[3]; 100% Methanol, 25 °C, organic solvent or mixture, Solvent 3: 100% Methanol", "value": 36, "unit": "mg/mL"},
      {"measurement": "solubility at 7 days", "setting": "[3]; 100% Polyethylene, 25 °C, organic solvent or mixture, Solvent 5: 100% Polyethylene", "value": 2.59, "unit": "mg/mL"},
      {"measurement": "solubility at 7 days", "setting": "[3]; 100% Propylene glycol, 25 °C, organic solvent or mixture, Solvent 4: 100% Propylene glycol", "value": 13, "unit": "mg/mL"},
      {"measurement": "solubility at 7 days", "setting": "[3]; Purified water, 25 °C, water, Solvent 1: Purified water", "value": 45.2, "unit": "mg/mL"},
      {"measurement": "Opiranserin hydrochloride Solubility", "setting": "[3]; Solvent 20: 6 w/v % Triacetin, 40° C./3 hours", "value": 86.1, "unit": "mg/mL"},
      {"measurement": "Concentration of opiranserin hydrochloride that could be dissolved", "setting": "[4]; sodium benzoate used as a hydrotrope", "value": "up to 300 mg/mL"},
      {"measurement": "Concentration of opiranserin hydrochloride that could be stably dissolved", "setting": "[4]; sodium salicylate used as a hydrotrope", "value": "up to 100 mg/mL"},
      {"measurement": "Concentration of opiranserin hydrochloride that could be stably dissolved", "setting": "[4]; trisodium citrate dihydrate used as a hydrotrope", "value": "up to 100 mg/mL"}
    ]}
  ]
}
